# Source: the kinase profiling compilation of Christmann-Franck et al. (2016)
# Key:
# Experiment in all cases: radiometric filter-binding kinase assay, Kinase HotSpot
# Conditions in all cases: compound 0.5 µM; ATP 10 µM
# STK33 (human) = STK33 (human) (UniProt Q9BYT3)
# TGFBR1 (human) = TGFBR1 (human) (UniProt P36897)
# STK11 (human) = STK11 (human) (UniProt Q15831)
# DSTYK (human) = DSTYK (human) (UniProt Q6XUX3)
# NEK2 (human) = NEK2 (human) (UniProt P51955)
# PRKCH (human) = PRKCH (human) (UniProt P24723)
# PBK (human) = PBK (human) (UniProt Q96KB5)
# MAPK14 (human) = MAPK14 (human) (UniProt Q16539)
# PLK2 (human) = PLK2 (human) (UniProt Q9NYY3)
# PRKD2 (human) = PRKD2 (human) (UniProt Q9BZL6)
# PRKCB1 (human) = PRKCB1 (human) (UniProt P05771)
# CAMK1 (human) = CAMK1 (human) (UniProt Q14012)
# CAMK1 (human), sequence (Q14012 whole entry, looked up): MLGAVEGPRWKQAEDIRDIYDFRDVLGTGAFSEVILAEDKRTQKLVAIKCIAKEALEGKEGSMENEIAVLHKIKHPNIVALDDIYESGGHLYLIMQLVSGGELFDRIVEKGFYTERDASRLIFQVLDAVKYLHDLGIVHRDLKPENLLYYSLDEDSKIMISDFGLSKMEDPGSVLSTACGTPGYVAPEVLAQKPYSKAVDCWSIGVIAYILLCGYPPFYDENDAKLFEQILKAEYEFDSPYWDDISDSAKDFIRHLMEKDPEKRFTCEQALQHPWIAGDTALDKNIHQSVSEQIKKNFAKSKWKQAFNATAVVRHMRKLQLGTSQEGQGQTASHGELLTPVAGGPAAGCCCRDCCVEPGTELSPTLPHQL
# ROCK1 (human) = ROCK1 (human) (UniProt Q13464)
# NLK (human) = NLK (human) (UniProt Q9UBE8)
# RPS6KA6 KD1 KD2 (human) = RPS6KA6 KD1 KD2 (human) (UniProt Q9UK32)
# ADRBK1 (human) = ADRBK1 (human) (UniProt P25098)
# RET (human) = RET (human) (UniProt P07949)
# FGFR2 (human) = FGFR2 (human) (UniProt P21802)
# PAK3 (human) = PAK3 (human) (UniProt O75914)
# PAK3 (human), sequence (O75914 whole entry, looked up): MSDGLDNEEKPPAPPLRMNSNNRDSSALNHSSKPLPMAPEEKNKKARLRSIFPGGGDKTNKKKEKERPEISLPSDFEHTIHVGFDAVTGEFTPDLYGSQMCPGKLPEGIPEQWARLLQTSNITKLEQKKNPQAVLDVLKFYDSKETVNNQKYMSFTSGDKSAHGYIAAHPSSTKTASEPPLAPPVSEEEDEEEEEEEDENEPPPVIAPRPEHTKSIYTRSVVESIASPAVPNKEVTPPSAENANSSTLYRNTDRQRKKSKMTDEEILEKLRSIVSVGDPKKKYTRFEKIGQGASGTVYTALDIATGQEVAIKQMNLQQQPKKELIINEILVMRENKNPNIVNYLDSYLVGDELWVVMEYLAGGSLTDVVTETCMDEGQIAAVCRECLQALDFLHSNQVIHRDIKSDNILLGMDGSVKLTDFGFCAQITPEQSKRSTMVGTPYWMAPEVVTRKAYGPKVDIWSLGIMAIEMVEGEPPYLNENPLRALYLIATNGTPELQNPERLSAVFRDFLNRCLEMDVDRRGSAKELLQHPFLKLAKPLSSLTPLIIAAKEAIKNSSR
# DMPK (human) = DMPK (human) (UniProt Q09013)
# PIM1 (human) = PIM1 (human) (UniProt P11309)
# PIM1 (human), sequence (P11309 whole entry, looked up): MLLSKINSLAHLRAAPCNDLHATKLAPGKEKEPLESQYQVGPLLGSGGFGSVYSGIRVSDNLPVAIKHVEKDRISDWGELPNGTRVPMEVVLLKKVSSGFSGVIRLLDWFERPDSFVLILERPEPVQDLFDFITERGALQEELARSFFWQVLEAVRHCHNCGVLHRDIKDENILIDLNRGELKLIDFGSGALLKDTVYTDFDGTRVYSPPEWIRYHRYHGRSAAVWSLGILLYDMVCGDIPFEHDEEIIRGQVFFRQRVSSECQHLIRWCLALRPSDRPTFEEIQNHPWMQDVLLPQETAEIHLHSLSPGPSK
# CSNK1G2 (human) = CSNK1G2 (human) (UniProt P78368)
# PRKCZ (human) = PRKCZ (human) (UniProt Q05513)
# STK25 (human) = STK25 (human) (UniProt O00506)
# STK25 (human), sequence (O00506 whole entry, looked up): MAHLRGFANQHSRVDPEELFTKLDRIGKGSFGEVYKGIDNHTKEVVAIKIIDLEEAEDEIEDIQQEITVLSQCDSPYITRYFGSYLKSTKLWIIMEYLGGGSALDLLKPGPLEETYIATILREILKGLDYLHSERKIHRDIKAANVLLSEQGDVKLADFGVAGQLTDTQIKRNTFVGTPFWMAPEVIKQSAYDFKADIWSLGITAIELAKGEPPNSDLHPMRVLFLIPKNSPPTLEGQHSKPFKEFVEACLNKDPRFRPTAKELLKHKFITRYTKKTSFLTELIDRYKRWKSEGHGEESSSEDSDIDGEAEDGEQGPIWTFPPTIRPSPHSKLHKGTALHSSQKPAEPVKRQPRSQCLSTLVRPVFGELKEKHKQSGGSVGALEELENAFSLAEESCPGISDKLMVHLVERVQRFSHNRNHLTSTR
# BRSK1 (human) = BRSK1 (human) (UniProt Q8TDC3)
# CDK6 CCND1 (human) = CDK6 CCND1 (human) (UniProt Q00534+P24385)
# KIT (human) = KIT (human) (UniProt P10721)
# PIM2 (human) = PIM2 (human) (UniProt Q9P1W9)
# CDC42BPA (human) = CDC42BPA (human) (UniProt Q5VT25)
# ACVR1B (human) = ACVR1B (human) (UniProt P36896)
# CDK2 CCNA2 (human) = CDK2 CCNA2 (human) (UniProt P24941+P20248)
# FYN (human) = FYN (human) (UniProt P06241)
# CLK3 (human) = CLK3 (human) (UniProt P49761)
# CLK3 (human), sequence (P49761 whole entry, looked up): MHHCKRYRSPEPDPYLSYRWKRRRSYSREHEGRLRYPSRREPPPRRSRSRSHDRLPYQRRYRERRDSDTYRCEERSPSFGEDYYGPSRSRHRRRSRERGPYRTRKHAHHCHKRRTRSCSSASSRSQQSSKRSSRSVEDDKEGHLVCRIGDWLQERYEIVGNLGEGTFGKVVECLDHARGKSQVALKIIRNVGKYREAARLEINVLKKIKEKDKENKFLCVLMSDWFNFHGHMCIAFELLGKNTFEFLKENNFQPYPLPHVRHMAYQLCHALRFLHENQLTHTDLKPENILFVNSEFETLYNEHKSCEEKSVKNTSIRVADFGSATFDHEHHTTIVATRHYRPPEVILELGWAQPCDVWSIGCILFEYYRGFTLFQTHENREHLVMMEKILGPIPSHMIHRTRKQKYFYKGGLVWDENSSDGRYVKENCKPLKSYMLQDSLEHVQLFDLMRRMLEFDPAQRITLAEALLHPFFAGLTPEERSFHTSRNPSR
# NEK1 (human) = NEK1 (human) (UniProt Q96PY6)
# DYRK3 (human) = DYRK3 (human) (UniProt O43781)
# IRAK1 (human) = IRAK1 (human) (UniProt P51617)
# GSK3B (human) = GSK3B (human) (UniProt P49841)
# GSK3B (human), sequence (P49841 whole entry, looked up): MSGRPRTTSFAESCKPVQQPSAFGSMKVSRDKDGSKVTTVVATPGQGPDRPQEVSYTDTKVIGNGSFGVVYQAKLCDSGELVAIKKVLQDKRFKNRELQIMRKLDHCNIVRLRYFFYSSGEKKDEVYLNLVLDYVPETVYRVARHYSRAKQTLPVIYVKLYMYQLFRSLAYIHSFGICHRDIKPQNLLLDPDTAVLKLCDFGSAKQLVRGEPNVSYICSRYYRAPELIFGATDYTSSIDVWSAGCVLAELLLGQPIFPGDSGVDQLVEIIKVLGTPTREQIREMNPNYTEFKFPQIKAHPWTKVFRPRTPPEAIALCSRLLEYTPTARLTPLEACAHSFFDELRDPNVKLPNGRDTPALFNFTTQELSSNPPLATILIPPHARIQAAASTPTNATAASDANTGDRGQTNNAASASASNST
# MAP3K3 (human) = MAP3K3 (human) (UniProt Q99759)
# LRRK2 (human) = LRRK2 (human) (UniProt Q5S007)
# MST1R (human) = MST1R (human) (UniProt Q04912)
# ERBB4 (human) = ERBB4 (human) (UniProt Q15303)
# ERBB4 (human), sequence (Q15303 whole entry, looked up): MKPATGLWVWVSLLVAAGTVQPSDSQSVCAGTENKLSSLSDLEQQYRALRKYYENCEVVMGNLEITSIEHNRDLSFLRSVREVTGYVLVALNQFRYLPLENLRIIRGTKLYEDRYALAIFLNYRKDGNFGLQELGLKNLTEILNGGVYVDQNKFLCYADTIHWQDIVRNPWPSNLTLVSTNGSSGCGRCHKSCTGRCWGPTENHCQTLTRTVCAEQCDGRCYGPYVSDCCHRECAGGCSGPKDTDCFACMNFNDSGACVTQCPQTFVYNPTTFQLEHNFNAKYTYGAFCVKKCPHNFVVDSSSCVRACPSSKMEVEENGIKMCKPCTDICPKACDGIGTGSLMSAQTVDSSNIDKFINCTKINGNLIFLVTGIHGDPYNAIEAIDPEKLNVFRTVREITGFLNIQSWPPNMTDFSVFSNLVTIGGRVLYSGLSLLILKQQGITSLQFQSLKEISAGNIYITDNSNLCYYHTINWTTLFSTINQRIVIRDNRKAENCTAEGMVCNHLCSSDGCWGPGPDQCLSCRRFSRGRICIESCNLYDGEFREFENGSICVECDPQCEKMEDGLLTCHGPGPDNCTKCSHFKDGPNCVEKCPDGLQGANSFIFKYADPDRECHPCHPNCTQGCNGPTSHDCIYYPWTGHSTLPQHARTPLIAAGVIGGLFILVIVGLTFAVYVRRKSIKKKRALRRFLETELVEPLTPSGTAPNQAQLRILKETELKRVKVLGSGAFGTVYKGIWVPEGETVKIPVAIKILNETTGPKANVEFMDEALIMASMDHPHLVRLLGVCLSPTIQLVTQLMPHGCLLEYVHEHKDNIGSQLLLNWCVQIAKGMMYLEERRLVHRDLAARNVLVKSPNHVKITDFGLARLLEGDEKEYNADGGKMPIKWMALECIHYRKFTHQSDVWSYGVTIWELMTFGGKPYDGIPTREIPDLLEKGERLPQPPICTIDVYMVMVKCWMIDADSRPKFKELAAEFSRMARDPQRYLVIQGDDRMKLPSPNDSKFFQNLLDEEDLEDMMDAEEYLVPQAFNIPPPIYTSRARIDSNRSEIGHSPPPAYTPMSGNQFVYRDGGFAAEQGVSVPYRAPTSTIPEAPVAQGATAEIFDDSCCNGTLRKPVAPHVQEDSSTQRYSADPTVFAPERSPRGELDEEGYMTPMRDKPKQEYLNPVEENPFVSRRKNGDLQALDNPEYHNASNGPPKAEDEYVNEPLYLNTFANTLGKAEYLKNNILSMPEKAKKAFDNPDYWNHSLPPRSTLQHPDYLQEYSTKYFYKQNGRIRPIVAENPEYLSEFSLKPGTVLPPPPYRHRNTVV
# SGK3 (human) = SGK3 (human) (UniProt Q96BR1)
# TGFBR1 (human), sequence (P36897 whole entry, looked up): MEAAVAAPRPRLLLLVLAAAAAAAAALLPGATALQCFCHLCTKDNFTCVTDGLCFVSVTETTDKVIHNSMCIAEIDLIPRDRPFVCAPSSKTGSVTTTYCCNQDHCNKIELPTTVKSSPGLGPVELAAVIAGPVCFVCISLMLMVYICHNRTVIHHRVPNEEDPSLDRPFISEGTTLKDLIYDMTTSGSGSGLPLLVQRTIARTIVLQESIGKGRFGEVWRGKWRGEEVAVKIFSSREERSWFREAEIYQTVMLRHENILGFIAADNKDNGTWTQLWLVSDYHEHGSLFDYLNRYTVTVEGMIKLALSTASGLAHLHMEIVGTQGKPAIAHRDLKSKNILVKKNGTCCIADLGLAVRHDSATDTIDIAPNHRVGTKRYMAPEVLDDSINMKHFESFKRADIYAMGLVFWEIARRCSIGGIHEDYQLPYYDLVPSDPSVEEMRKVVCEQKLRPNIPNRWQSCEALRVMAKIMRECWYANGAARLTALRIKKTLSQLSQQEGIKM
# NEK2 (human), sequence (P51955 whole entry, looked up): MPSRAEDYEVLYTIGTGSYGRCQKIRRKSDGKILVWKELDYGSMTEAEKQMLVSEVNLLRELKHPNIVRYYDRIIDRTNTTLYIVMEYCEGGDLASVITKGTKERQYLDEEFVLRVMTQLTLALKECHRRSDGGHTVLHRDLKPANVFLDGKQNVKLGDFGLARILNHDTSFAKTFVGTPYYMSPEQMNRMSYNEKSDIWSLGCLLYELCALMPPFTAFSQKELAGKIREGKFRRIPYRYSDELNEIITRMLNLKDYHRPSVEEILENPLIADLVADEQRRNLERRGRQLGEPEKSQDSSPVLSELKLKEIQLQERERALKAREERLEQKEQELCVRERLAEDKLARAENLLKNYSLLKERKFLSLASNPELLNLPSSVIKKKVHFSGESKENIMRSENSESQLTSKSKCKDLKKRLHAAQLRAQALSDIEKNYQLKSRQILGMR
smiles,measurement,setting,value
O=C1Nc2ccccc2/C1=C1/Nc2ccccc2/C1=N\OCCC(O)CO (stereo not drawn),residual activity,STK33 (human),22.3%
same,residual activity,TGFBR1 (human),102%
same,residual activity,STK11 (human),5.77%
same,residual activity,DSTYK (human),104%
same,residual activity,NEK2 (human),114%
same,residual activity,PRKCH (human),82.2%
same,residual activity,PBK (human),80.6%
same,residual activity,MAPK14 (human),101%
same,residual activity,PLK2 (human),105%
same,residual activity,PRKD2 (human),74.3%
same,residual activity,PRKCB1 (human),93.6%
same,residual activity,CAMK1 (human),76%
same,residual activity,ROCK1 (human),101%
same,residual activity,NLK (human),101%
same,residual activity,RPS6KA6 KD1 KD2 (human),16.4%
same,residual activity,ADRBK1 (human),101%
same,residual activity,RET (human),1.22%
same,residual activity,FGFR2 (human),76%
same,residual activity,PAK3 (human),73.8%
same,residual activity,DMPK (human),99.5%
same,residual activity,PIM1 (human),59.7%
same,residual activity,CSNK1G2 (human),85.2%
same,residual activity,PRKCZ (human),98.5%
same,residual activity,STK25 (human),74%
same,residual activity,BRSK1 (human),39.5%
same,residual activity,CDK6 CCND1 (human),27.7%
same,residual activity,KIT (human),44.8%
same,residual activity,PIM2 (human),99.5%
same,residual activity,CDC42BPA (human),88.6%
same,residual activity,ACVR1B (human),110%
same,residual activity,CDK2 CCNA2 (human),15.5%
same,residual activity,FYN (human),13%
same,residual activity,CLK3 (human),16.1%
same,residual activity,NEK1 (human),92.9%
same,residual activity,DYRK3 (human),105%
same,residual activity,IRAK1 (human),34.5%
same,residual activity,GSK3B (human),12.6%
same,residual activity,MAP3K3 (human),87.8%
same,residual activity,LRRK2 (human),81.2%
same,residual activity,MST1R (human),101%
same,residual activity,ERBB4 (human),97.5%
same,residual activity,SGK3 (human),100%
O=C1Cc2c([nH]c3ccc(Br)cc23)-c2ccccc2N1,residual activity,STK33 (human),103%
same,residual activity,TGFBR1 (human),97.7%
same,residual activity,STK11 (human),95.7%
same,residual activity,DSTYK (human),98.6%
same,residual activity,NEK2 (human),87.1%
same,residual activity,PRKCH (human),95.3%
same,residual activity,PBK (human),99.3%
same,residual activity,MAPK14 (human),93%
same,residual activity,PLK2 (human),99.1%
same,residual activity,PRKD2 (human),100%
same,residual activity,PRKCB1 (human),93.1%
same,residual activity,CAMK1 (human),106%
same,residual activity,ROCK1 (human),96.1%
same,residual activity,NLK (human),98.7%
same,residual activity,RPS6KA6 KD1 KD2 (human),95.9%
same,residual activity,ADRBK1 (human),103%
same,residual activity,RET (human),102%
same,residual activity,FGFR2 (human),100%
same,residual activity,PAK3 (human),96.6%
same,residual activity,DMPK (human),110%
same,residual activity,PIM1 (human),96.8%
same,residual activity,CSNK1G2 (human),102%
same,residual activity,PRKCZ (human),98.3%
same,residual activity,STK25 (human),98.8%
same,residual activity,BRSK1 (human),60.5%
same,residual activity,CDK6 CCND1 (human),83.4%
same,residual activity,KIT (human),90.3%
same,residual activity,PIM2 (human),104%
same,residual activity,CDC42BPA (human),99%
same,residual activity,ACVR1B (human),99.8%
same,residual activity,CDK2 CCNA2 (human),37.4%
same,residual activity,FYN (human),73.4%
same,residual activity,CLK3 (human),99.3%
same,residual activity,NEK1 (human),95.4%
same,residual activity,DYRK3 (human),113%
same,residual activity,IRAK1 (human),98.6%
same,residual activity,GSK3B (human),19.7%
same,residual activity,MAP3K3 (human),93.2%
same,residual activity,LRRK2 (human),78.7%
same,residual activity,MST1R (human),93.6%
same,residual activity,ERBB4 (human),101%
same,residual activity,SGK3 (human),107%
O=C1NC(=O)C(c2c[nH]c3ccccc23)=C1c1c[nH]c2ccccc12,residual activity,STK33 (human),97.7%
same,residual activity,TGFBR1 (human),96.6%
same,residual activity,STK11 (human),107%
same,residual activity,DSTYK (human),99.6%
same,residual activity,NEK2 (human),102%
same,residual activity,PRKCH (human),42%
same,residual activity,PBK (human),100%
same,residual activity,MAPK14 (human),109%
same,residual activity,PLK2 (human),97.7%
same,residual activity,PRKD2 (human),87.4%
same,residual activity,PRKCB1 (human),26.1%
same,residual activity,CAMK1 (human),105%
same,residual activity,ROCK1 (human),97.4%
same,residual activity,NLK (human),103%
same,residual activity,RPS6KA6 KD1 KD2 (human),19.2%
same,residual activity,ADRBK1 (human),98.4%
same,residual activity,RET (human),80.6%
same,residual activity,FGFR2 (human),89.4%
same,residual activity,PAK3 (human),97.4%
same,residual activity,DMPK (human),97.3%
same,residual activity,PIM1 (human),17.2%
same,residual activity,CSNK1G2 (human),92%
same,residual activity,PRKCZ (human),96.2%
same,residual activity,STK25 (human),78.3%
same,residual activity,BRSK1 (human),84.4%
same,residual activity,CDK6 CCND1 (human),88.7%
same,residual activity,KIT (human),68.5%
same,residual activity,PIM2 (human),105%
same,residual activity,CDC42BPA (human),89.9%
same,residual activity,ACVR1B (human),112%
same,residual activity,CDK2 CCNA2 (human),81.9%
same,residual activity,FYN (human),101%
same,residual activity,CLK3 (human),102%
same,residual activity,NEK1 (human),93.8%
same,residual activity,DYRK3 (human),101%
same,residual activity,IRAK1 (human),89.6%
same,residual activity,GSK3B (human),28.4%
same,residual activity,MAP3K3 (human),127%
same,residual activity,LRRK2 (human),77.5%
same,residual activity,MST1R (human),93.1%
same,residual activity,ERBB4 (human),110%
same,residual activity,SGK3 (human),97.9%
CC(C)c1nn(-c2c(Cl)cccc2Cl)c2nc(Cc3ccc(OCCO)cc3)nc(O)c12,residual activity,STK33 (human),97.5%
same,residual activity,TGFBR1 (human),98%
same,residual activity,STK11 (human),47.7%
same,residual activity,DSTYK (human),93.1%
same,residual activity,NEK2 (human),97.7%
same,residual activity,PRKCH (human),87.4%
same,residual activity,PBK (human),101%
same,residual activity,MAPK14 (human),96.8%
same,residual activity,PLK2 (human),99.8%
same,residual activity,PRKD2 (human),88.4%
same,residual activity,PRKCB1 (human),101%
same,residual activity,CAMK1 (human),85.1%
same,residual activity,ROCK1 (human),101%
same,residual activity,NLK (human),97.6%
same,residual activity,RPS6KA6 KD1 KD2 (human),84.8%
same,residual activity,ADRBK1 (human),94.8%
same,residual activity,RET (human),97.5%
same,residual activity,FGFR2 (human),97.5%
same,residual activity,PAK3 (human),94.8%
same,residual activity,DMPK (human),99.3%
same,residual activity,PIM1 (human),99%
same,residual activity,CSNK1G2 (human),95.7%
same,residual activity,PRKCZ (human),96.9%
same,residual activity,STK25 (human),68.1%
same,residual activity,BRSK1 (human),91.3%
same,residual activity,CDK6 CCND1 (human),19.8%
same,residual activity,KIT (human),71%
same,residual activity,PIM2 (human),104%
same,residual activity,CDC42BPA (human),89.5%
same,residual activity,ACVR1B (human),109%
same,residual activity,CDK2 CCNA2 (human),1.96%
same,residual activity,FYN (human),102%
same,residual activity,CLK3 (human),91.3%
same,residual activity,NEK1 (human),90.9%
same,residual activity,DYRK3 (human),99%
same,residual activity,IRAK1 (human),99.2%
same,residual activity,GSK3B (human),47.1%
same,residual activity,MAP3K3 (human),110%
same,residual activity,LRRK2 (human),109%
same,residual activity,MST1R (human),97.5%
same,residual activity,ERBB4 (human),101%
same,residual activity,SGK3 (human),92.6%
